Measured values published in article PMC5896373 (Molecular Pharmacology, 2018).

Tests used:
[1] = molecular target: T1, chimeric P2X7R with left flipper 280–284 of P2X4 (Homo sapiens, UniProt Q99572, D280T/I21V/K281R/M24R/N16P/N25R/N284E/Q22R/R20V/S23N/T19I/T282D/T283V/Y26L); details: chimera 280–284 of P2X4
T1 sequence (Q99572 1-595 N16P/T19I/R20V/I21V/Q22R/S23N/M24R/N25R/Y26L/D280T/K281R/T282D/T283V/N284E): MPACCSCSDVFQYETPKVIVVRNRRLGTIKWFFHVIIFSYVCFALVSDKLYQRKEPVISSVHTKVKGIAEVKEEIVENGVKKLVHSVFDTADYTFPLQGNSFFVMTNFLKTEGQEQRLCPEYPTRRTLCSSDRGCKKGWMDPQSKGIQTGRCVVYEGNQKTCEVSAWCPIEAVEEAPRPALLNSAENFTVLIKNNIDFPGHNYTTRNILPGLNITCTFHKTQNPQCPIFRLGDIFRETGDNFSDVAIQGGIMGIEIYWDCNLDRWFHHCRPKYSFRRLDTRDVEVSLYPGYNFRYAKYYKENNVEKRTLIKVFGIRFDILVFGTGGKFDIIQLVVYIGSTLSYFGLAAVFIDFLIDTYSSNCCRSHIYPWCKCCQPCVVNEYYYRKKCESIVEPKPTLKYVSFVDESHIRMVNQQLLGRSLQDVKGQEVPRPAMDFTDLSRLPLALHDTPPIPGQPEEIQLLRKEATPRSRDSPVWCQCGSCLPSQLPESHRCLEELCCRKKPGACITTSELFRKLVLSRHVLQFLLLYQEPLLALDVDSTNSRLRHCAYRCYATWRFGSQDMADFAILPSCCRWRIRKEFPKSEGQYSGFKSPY
Method: (§1) The production of the correct mutations and absence of coding errors was determined by DNA sequencing (Automated ABI Sequencing Service, University of Leicester, UK). cRNA was generated for the mutants and 50 nl (50 ng) was injected into manually defoliculated stage V Xenopus laevis oocytes using an Inject+Matic microinjector (J.A. Gabay, Inject+Matic, Geneva, Switzerland). Injected oocytes were stored at 16°C in ND96 buffer [in millimolar concentrations, NaCl 96, KCl 2, CaCl2 1.8, MgCl2 1, sodium pyruvate 5, and HEPES 5 (pH 7.6) supplemented with 50 μg/ml gentamycin and 50 μg/ml tetracycline]. Three to seven days postinjection two-electrode voltage clamp recordings were made from oocytes bathed in divalent-free ND96 buffer (in millimolar concentrations, NaCl 96, KCl 2, sodium pyruvate 5, HEPES 5, and 0.1 flufenamic acid, pH 7.6). Oocytes were voltage clamped at a holding potential of −60 mV with a GeneClamp500B amplifier (Molecular Devices).
Inhibition by the antagonists was expressed as the percentage of the peak current amplitude of an EC90 concentration of ATP recorded before the application of antagonist (ATP gave reproducible responses to ATP in the absence of antagonist). Inhibition curves were fitted with the Hill equation (variable slope) using GraphPad Prism 6 (GraphPad Software, San Diego, CA). […] Individual concentration-response curves were generated for individual experiments, and statistical analysis was carried out on the data generated. […] Data are shown as mean ± S.E.M. In all cases n ≥ 3 for all data points.

[2] = tested on: P2X7R left flipper point mutant T282A; assay: Two-electrode voltage clamp of ATP-evoked currents in Xenopus oocytes; assay type: cell-based, human
Method: as §1
(§2) Inhibition by the antagonists was expressed as the percentage of the peak current amplitude of an EC90 concentration of ATP recorded before the application of antagonist (ATP gave reproducible responses to ATP in the absence of antagonist). Inhibition curves were fitted with the Hill equation (variable slope) using GraphPad Prism 6 (GraphPad Software, San Diego, CA). […]

[3] = tested on: P2X7R left flipper point mutant D280A; assay: as above; assay type: cell-based, human
Method: as §1, §2

[4] = molecular target: T2, P2X7R mutant Insert G99 (Homo sapiens, UniProt Q99572, I21V/INS99D/M24R/N16P/N25R/Q22R/R20V/S23N/T19I/Y26L); design: method as in Allsopp et al., 2017; details: aspartic acid inserted between G99 and N100; ref Allsopp et al., 2017; cited from earlier work
T2 construct: expressed in transfected cells; host or cells: Xenopus laevis oocytes (cRNA injection)
T2 sequence (Q99572 with tags, fused parts or gaps N16P/T19I/R20V/I21V/Q22R/S23N/M24R/N25R/Y26L/INS99D): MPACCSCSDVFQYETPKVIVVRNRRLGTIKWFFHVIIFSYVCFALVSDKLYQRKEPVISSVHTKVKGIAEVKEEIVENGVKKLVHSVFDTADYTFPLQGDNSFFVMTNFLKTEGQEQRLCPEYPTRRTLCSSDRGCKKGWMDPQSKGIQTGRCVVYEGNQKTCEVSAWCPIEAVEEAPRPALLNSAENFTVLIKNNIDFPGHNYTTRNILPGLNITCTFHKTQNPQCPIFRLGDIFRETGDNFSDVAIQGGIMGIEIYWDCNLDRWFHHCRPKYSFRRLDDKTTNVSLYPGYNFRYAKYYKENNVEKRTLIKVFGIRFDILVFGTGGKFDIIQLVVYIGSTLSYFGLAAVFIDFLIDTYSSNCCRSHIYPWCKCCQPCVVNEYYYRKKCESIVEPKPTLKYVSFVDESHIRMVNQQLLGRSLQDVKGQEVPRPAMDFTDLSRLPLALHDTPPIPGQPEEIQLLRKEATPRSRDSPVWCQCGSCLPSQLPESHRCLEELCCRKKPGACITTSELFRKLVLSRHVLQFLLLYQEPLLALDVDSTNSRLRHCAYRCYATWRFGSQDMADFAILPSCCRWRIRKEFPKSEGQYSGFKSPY

[5] = molecular target: T3, chimeric P2X7/1 receptor 210–217 (Homo sapiens, UniProt Q99572, G211E/I214K/I21V/INS213AAHM/L212V/M24R/N16P/N25R/P210E/Q22R/R20V/S23N/T19I/T217L/Y26L); design: method as in Allsopp et al., 2017; details: chimera 210–217; ref Allsopp et al., 2017; cited from earlier work
T3 construct: expressed in transfected cells; host or cells: Xenopus laevis oocytes (cRNA injection)
T3 sequence (Q99572 with tags, fused parts or gaps N16P/T19I/R20V/I21V/Q22R/S23N/M24R/N25R/Y26L/P210E/G211E/L212V/INS213AAHM/I214K/T217L): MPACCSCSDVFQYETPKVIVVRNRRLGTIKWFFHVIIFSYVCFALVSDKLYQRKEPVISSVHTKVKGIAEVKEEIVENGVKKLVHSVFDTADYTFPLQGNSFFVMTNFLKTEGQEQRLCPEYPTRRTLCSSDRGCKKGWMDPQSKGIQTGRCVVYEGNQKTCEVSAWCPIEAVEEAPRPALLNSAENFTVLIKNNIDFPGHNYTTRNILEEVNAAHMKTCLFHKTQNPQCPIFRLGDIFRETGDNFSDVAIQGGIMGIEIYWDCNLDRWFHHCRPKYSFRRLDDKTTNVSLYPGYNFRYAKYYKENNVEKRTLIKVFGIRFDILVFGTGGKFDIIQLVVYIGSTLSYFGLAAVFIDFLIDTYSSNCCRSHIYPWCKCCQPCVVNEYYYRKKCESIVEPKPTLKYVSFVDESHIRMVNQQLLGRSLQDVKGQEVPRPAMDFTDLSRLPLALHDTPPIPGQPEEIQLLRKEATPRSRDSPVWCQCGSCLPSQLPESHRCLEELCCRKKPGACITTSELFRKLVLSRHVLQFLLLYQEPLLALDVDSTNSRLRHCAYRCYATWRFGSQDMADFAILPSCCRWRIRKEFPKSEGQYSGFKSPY

Row | Structure (SMILES) | fold decrease in antagonist sensitivity relative to P2X7-2Nβ [1] | effect on antagonist sensitivity relative to P2X7-2Nβ [2] | effect on antagonist sensitivity relative to P2X7-2Nβ [3] | effect on antagonist binding [4] | effect on antagonist sensitivity [5]
1 | COc1ccc(CC(=O)NC(N=C(NC#N)Nc2cccc3ncccc23)C(C)(C)C)cc1OC (centres unmarked) [A740003, N-[1-[[(cyanoamino)(5-quinolinylamino)methylene]amino]-2,2-dimethylpropyl]-3,4-dimethoxybenzeneacetamide] | ~10 fold | no effect | no effect | – | –
2 | Cl.Cl.O=C(CC12CC3CC(CC(C3)C1)C2)Nc1cccc2nc(NCCNCCO)ccc12 [AZ10606120, N-[2-[[2-[(2-hydroxyethyl)amino]ethyl]amino]-5-quinolinyl]-2-tricyclo[3.3.1.13,7]dec-1-ylacetamide dihydrochloride] | – | – | – | little effect | no change
